Broadly, the IC50 is the concentration needed to halve the response being measured.

Chain of HDAC2 (Q92769 with tags, fused parts or gaps): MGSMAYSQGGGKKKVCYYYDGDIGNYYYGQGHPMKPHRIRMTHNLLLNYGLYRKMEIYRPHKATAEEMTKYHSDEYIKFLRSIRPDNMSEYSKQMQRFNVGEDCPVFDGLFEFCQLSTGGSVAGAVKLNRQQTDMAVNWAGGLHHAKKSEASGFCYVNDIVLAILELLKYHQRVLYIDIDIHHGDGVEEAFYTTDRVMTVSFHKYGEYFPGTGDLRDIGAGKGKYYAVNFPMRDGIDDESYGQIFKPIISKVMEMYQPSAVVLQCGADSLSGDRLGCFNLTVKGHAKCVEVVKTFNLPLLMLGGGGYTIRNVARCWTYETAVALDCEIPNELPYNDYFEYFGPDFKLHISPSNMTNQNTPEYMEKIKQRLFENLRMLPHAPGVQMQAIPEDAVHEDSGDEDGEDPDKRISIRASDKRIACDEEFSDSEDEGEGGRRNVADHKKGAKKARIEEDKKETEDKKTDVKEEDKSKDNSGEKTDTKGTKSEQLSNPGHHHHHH

One experiment addresses HDAC2 (Homo sapiens, UniProt Q92769). Description: HDAC2 fluorescence inhibition assay (tBoc-Lys(Ac)-AMC).
Conditions: not given
Turning to `Nc1ccccc1NC(=O)c1ccc(Cn2nc(N)c3cc(C(F)(F)F)ccc32)cc1` [Example 63, 4-((3-amino-5-(trifluoromethyl)-1H-indazol-1-yl)methyl)-N-(2-aminophenyl)benzamide], the IC50 was 50 to 100 nM.
Still for that read-out and setting: the value for `Nc1ccccc1NC(=O)c1ccc(Cn2[nH]c(=O)c3ccccc32)cc1` [Example 64, N-(2-aminophenyl)-4-((3-oxo-2,3-dihydro-1H-indazol-1-yl)methyl)benzamide] was 50 to 100 nM; that for `Nc1ccccc1NC(=O)c1ccc(Cn2[nH]c3ccccc3c2=O)cc1` [Example 65, N-(2-aminophenyl)-4-((3-oxo-1H-indazol-2(3H)-yl)methyl)benzamide] was 100 to 500 nM; that for `COc1ccc2c(C)nn(Cc3ccc(C(=O)Nc4ccccc4N)cc3)c2c1` [Example 66, N-(2-aminophenyl)-4-((6-methoxy-3-methyl-1H-indazol-1-yl)methyl)benzamide] was at most 50 nM.
Same read-out and setting: the value for `COc1ccc2c(C)n(Cc3ccc(C(=O)Nc4ccccc4N)cc3)nc2c1` [Example 67, N-(2-aminophenyl)-4-((6-methoxy-3-methyl-2H-indazol-2-yl)methyl)benzamide] was at most 50 nM; that for `Cc1nn(Cc2ccc(C(=O)Nc3ccccc3N)cc2)c2cc(F)ccc12` [Example 68, N-(2-aminophenyl)-4-((6-fluoro-3-methyl-1H-indazol-1-yl)methyl)benzamide] was 50 to 100 nM; that for `Cc1c2ccc(F)cc2nn1Cc1ccc(C(=O)Nc2ccccc2N)cc1` [Example 69, N-(2-aminophenyl)-4-((6-fluoro-3-methyl-2H-indazol-2-yl)methyl)benzamide] was 50 to 100 nM.
The same measure, in the same setting: to `Cc1nn(Cc2ccc(C(=O)Nc3ccccc3N)cc2)c2ccc(F)cc12` [Example 70, N-(2-aminophenyl)-4-((5-fluoro-3-methyl-1H-indazol-1-yl)methyl)benzamide] belongs 100 to 500 nM.
`Cc1c2cc(F)ccc2nn1Cc1ccc(C(=O)Nc2ccccc2N)cc1` [Example 71, N-(2-aminophenyl)-4-((5-fluoro-3-methyl-2H-indazol-2-yl)methyl)benzamide] returned a concentration for half-maximal inhibition (IC50) of 50 to 100 nM.
Still for that read-out and setting: to `CCc1nn(Cc2ccc(C(=O)Nc3ccccc3N)cc2)c2ccccc12` [Example 72, N-(2-aminophenyl)-4-((3-ethyl-1H-indazol-1-yl)methyl)benzamide] belongs 50 to 100 nM; to `CCc1c2ccccc2nn1Cc1ccc(C(=O)Nc2ccccc2N)cc1` [Example 73, N-(2-aminophenyl)-4-((3-ethyl-2H-indazol-2-yl)methyl)benzamide], 100 to 500 nM.
`Cc1nn(Cc2ccc(C(=O)Nc3ccccc3N)cc2)c2cc(O)ccc12` [Example 74, N-(2-aminophenyl)-4-((6-hydroxy-3-methyl-1H-indazol-1-yl)methyl)benzamide]: the 50% inhibitory concentration (IC50) was at most 50 nM.
Still for that read-out and setting: the value for `Cc1c2ccc(O)cc2nn1Cc1ccc(C(=O)Nc2ccccc2N)cc1` [Example 75, N-(2-aminophenyl)-4-((6-hydroxy-3-methyl-2H-indazol-2-yl)methyl)benzamide] was 100 to 500 nM; that for `Nc1ccccc1NC(=O)c1ccc(Cn2nc(-c3ccccc3)c3ccccc32)cc1` [Example 76, N-(2-aminophenyl)-4-((3-phenyl-1H-indazol-1-yl)methyl)benzamide] was 50 to 100 nM; that for `Nc1ccccc1NC(=O)c1ccc(Cn2nc3ccccc3c2-c2ccccc2)cc1` [Example 77, N-(2-aminophenyl)-4-((3-phenyl-2H-indazol-2-yl)methyl)benzamide] was 50 to 100 nM.
As for `COc1ccc2c(cnn2Cc2ccc(C(=O)Nc3ccccc3N)cc2)c1` [Example 78, N-(2-aminophenyl)-4-((5-methoxy-1H-indazol-1-yl)methyl)benzamide], the half-maximal inhibitory concentration (IC50) was at most 50 nM.
On the same count and under the same terms, the value for `COc1ccc2nn(Cc3ccc(C(=O)Nc4ccccc4N)cc3)cc2c1` [Example 79, N-(2-aminophenyl)-4-((5-methoxy-2H-indazol-2-yl)methyl)benzamide] was at most 50 nM.
`Cc1ccc2c(c1)c(C)nn2Cc1ccc(C(=O)Nc2ccccc2N)cc1` [Example 80, N-(2-aminophenyl)-4-((3,5-dimethyl-1H-indazol-1-yl)methyl)benzamide] showed a 50% inhibitory concentration (IC50) of 50 to 100 nM.
On the same count and under the same terms, the value for `Cc1ccc2nn(Cc3ccc(C(=O)Nc4ccccc4N)cc3)c(C)c2c1` [Example 81, N-(2-aminophenyl)-4-((3,5-dimethyl-2H-indazol-2-yl)methyl)benzamide] was 50 to 100 nM; that for `COc1cccc2cn(Cc3ccc(C(=O)Nc4ccccc4N)cc3)nc12` [Example 82, N-(2-aminophenyl)-4-((7-methoxy-2H-indazol-2-yl)methyl)benzamide] was 50 to 100 nM; that for `COc1cccc2nn(Cc3ccc(C(=O)Nc4ccccc4N)cc3)cc12` [Example 83, N-(2-aminophenyl)-4-((4-methoxy-2H-indazol-2-yl)methyl)benzamide] was at most 50 nM.
For the compound `COc1cccc2cnn(Cc3ccc(C(=O)Nc4ccccc4N)cc3)c12` [Example 84, N-(2-aminophenyl)-4-((7-methoxy-1H-indazol-1-yl)methyl)benzamide], the concentration for half-maximal inhibition (IC50) lay in the range of 100 to 500 nM.
On the same count and under the same terms, to `COc1cccc2c1cnn2Cc1ccc(C(=O)Nc2ccccc2N)cc1` [Example 85, N-(2-aminophenyl)-4-((4-methoxy-1H-indazol-1-yl)methyl)benzamide] belongs at most 50 nM; to `CC(=O)Nc1ccc2c(C)n(Cc3ccc(C(=O)Nc4ccccc4N)cc3)nc2c1` [Example 86, 4-((6-acetamido-3-methyl-2H-indazol-2-yl)methyl)-N-(2-aminophenyl)benzamide], at most 50 nM; to `CC(=O)Nc1ccc2c(C)nn(Cc3ccc(C(=O)Nc4ccccc4N)cc3)c2c1` [Example 87, 4-((6-acetamido-3-methyl-1H-indazol-1-yl)methyl)-N-(2-aminophenyl)benzamide], 50 to 100 nM.
Still for that read-out and setting: the value for `Nc1ccccc1NC(=O)c1ccc(Cn2nc3ccccc3c2N)cc1` [Example 88, 4-((3-amino-2H-indazol-2-yl)methyl)-N-(2-aminophenyl)benzamide] was 50 to 100 nM; that for `CC(=O)Nc1ccc2cnn(Cc3ccc(C(=O)Nc4ccccc4N)cc3)c2c1` [Example 89, 4-((6-acetamido-1H-indazol-1-yl)methyl)-N-(2-aminophenyl)benzamide] was at most 50 nM.
The same measure, in the same setting: the value for `CC(=O)Nc1ccc2cn(Cc3ccc(C(=O)Nc4ccccc4N)cc3)nc2c1` [Example 90, 4-((6-acetamido-2H-indazol-2-yl)methyl)-N-(2-aminophenyl)benzamide] was at most 50 nM; that for `Cc1c2cccc(C(F)(F)F)c2nn1Cc1ccc(C(=O)Nc2ccccc2N)cc1` [Example 91, N-(2-aminophenyl)-4-((3-methyl-7-(trifluoromethyl)-2H-indazol-2-yl)methyl)benzamide] was 50 to 100 nM.
The compound `Cc1c2ccc(C(F)(F)F)cc2nn1Cc1ccc(C(=O)Nc2ccccc2N)cc1` [Example 92, N-(2-aminophenyl)-4-((3-methyl-6-(trifluoromethyl)-2H-indazol-2-yl)methyl)benzamide] registered an IC50 of 50 to 100 nM.
On the same count and under the same terms, the value for `Cc1nn(Cc2ccc(C(=O)Nc3ccccc3N)cc2)c2cc(C(F)(F)F)ccc12` [Example 93, N-(2-aminophenyl)-4-((3-methyl-6-(trifluoromethyl)-1H-indazol-1-yl)methyl)benzamide] was 50 to 100 nM; that for `Cc1nn(Cc2ccc(C(=O)Nc3ccccc3N)cc2)c2ccc(C(F)(F)F)cc12` [Example 94, N-(2-aminophenyl)-4-((3-methyl-5-(trifluoromethyl)-1H-indazol-1-yl)methyl)benzamide] was 50 to 100 nM.
As for `Cc1c2cc(C(F)(F)F)ccc2nn1Cc1ccc(C(=O)Nc2ccccc2N)cc1` [Example 95, N-(2-aminophenyl)-4-((3-methyl-5-(trifluoromethyl)-2H-indazol-2-yl)methyl)benzamide], the IC50 was at most 50 nM.
On the same count and under the same terms, the value for `Nc1ccccc1NC(=O)c1ccc(Cn2nc(N)c3ccccc32)cc1` [Example 96, 4-((3-amino-1H-indazol-1-yl)methyl)-N-(2-aminophenyl)benzamide] was 50 to 100 nM; that for `COc1cc2nn(Cc3ccc(C(=O)Nc4ccccc4N)cc3)cc2cc1O` [Example 97, N-(2-aminophenyl)-4-((5-hydroxy-6-methoxy-2H-indazol-2-yl)methyl)benzamide] was 50 to 100 nM; that for `COc1cc2cn(Cc3ccc(C(=O)Nc4ccccc4N)cc3)nc2cc1OC` [Example 98, N-(2-aminophenyl)-4-((5,6-dimethoxy-2H-indazol-2-yl)methyl)benzamide] was at most 50 nM.
Same read-out and setting: the value for `COc1cc2cnn(Cc3ccc(C(=O)Nc4ccccc4N)cc3)c2cc1OC` [Example 99, N-(2-aminophenyl)-4-((5,6-dimethoxy-1H-indazol-1-yl)methyl)benzamide] was at most 50 nM; that for `Nc1ccccc1NC(=O)c1ccc(Cn2nnc3ccccc32)cc1` [Example 100, 4-((1H-benzo[d][1,2,3]triazol-1-yl)methyl)-N-(2-aminophenyl)benzamide] was 50 to 100 nM.
Still for that read-out and setting: the value for `Nc1ccccc1NC(=O)c1ccc(Cn2nc3ccccc3n2)cc1` [Example 101, 4-((2H-benzo[d][1,2,3]triazol-2-yl)methyl)-N-(2-aminophenyl)benzamide] was 50 to 100 nM.
Turning to `Nc1ccccc1NC(=O)c1ccc(Cn2cc(C(=O)NCCN3CCNCC3)cn2)cc1` [Example 103, 1-(4-(2-aminophenylcarbamoyl)benzyl)-N-(2-(piperazin-1-yl)ethyl)-1H-pyrazole-4-carboxamide], the IC50 was at most 50 nM.
The compound `Nc1ncncc1NC(=O)c1ccc(Cn2cc3ccccc3n2)cc1` [Example 104, 4-((2H-indazol-2-yl)methyl)-N-(4-aminopyrimidin-5-yl)benzamide] registered an IC50 of at least 500 nM.
Still for that read-out and setting: the value for `CC(=O)Nc1ccc2c(c1)c(N)nn2Cc1ccc(C(=O)Nc2ccccc2N)cc1` [Example 105, 4-((5-acetamido-3-amino-1H-indazol-1-yl)methyl)-N-(2-aminophenyl)benzamide] was 50 to 100 nM.

Still in this experiment, the particulars now being: read-out: IC50 of selected exemplified compounds against HDAC2; 50 μM tBoc-Lys(Ac)-AMC, 1 nM HDAC2, 60 minutes at room temperature.
For the compound `CC(=O)Nc1ccc2c(cnn2Cc2ccc(C(=O)Nc3ccccc3N)cc2)c1` [Example 102, 4-((5-acetamido-1H-indazol-1-yl)methyl)-N-(2-aminophenyl)benzamide], the IC50 was at least 500 nM.

The values above are taken from patent US7732475B2, “Histone deacetylase inhibitors” (Takeda San Diego, Inc., priority 2005, dated 2010).
